pIC50: −log10 of the molar value.

For one test, the target named is T1, GLUT1 (Homo sapiens, UniProt P11166).
T1 sequence (P11166 1-492): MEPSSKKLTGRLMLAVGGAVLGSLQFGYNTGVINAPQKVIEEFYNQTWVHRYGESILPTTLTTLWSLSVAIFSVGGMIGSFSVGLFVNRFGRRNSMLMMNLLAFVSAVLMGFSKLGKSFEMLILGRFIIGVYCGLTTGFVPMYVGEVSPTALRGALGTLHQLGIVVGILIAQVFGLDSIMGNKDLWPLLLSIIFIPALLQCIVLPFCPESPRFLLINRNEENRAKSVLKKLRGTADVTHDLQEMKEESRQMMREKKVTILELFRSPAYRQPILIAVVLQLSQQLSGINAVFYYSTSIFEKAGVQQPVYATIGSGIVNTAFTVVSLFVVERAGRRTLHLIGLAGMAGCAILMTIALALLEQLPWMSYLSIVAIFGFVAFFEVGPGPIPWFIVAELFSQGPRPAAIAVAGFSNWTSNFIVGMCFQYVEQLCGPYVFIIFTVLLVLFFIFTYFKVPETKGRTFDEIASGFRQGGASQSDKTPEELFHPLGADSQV
Kind of test: Indirect measurement of GLUT1 activity by quantification of intracellular ATP levels (glucose induced ATP increase). The settings on record: DLD1 cells; 0.1 mM glucose, 1 μM Rotenone, 15 min; CellTiter-Glo ATP readout; IC50 values standardized to cytochalasin B IC50 values; read-out: IC50 regarding glucose induced ATP increase (GLUT1 inhibition). The class given is cell-based. More on the design: endogenous in cells; host or cells: DLD1 or CHO-K1. Put shortly:
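Intracellular ATP was measured by CellTiter-Glo luminescence as an indirect readout of transport: glucose-driven for GLUT1, fructose-driven for GLUT2. DLD1 or CHO-K1 cells were used alongside an oxidative phosphorylation inhibitor. Beforehand, cells were held overnight in glucose-free 1% FCS medium to deplete ATP.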
In the case of “6-cyano N^4-[1-(4-cyanobenzyl)-5-methyl-3-(trifluoromethyl)-1H-pyrazol-4-yl]quinoline-2,4-dicarboxamide [Example 337]”, the pIC50 is 8.72.

The same test, now with this note: read-out: IC50 regarding glucose induced ATP increase (GLUT1 inhibition).
Consider `Cc1nn(Cc2ccc(CC(=O)NCc3cccnc3)cc2)c(C)c1NC(=O)c1cc(C(F)(F)F)nc2ccc(Br)cc12` [Example 157, 6-bromo-N-[3,5-dimethyl-1-(4-{2-oxo-2-[(pyridin-3-ylmethyl)amino]ethyl}benzyl)-1H-pyrazol-4-yl]-2-(trifluoromethyl)quinoline-4-carboxamide], for which the pIC50 was 6.36.

`Cc1c(NC(=O)c2cc(C(N)=O)nc3cc(F)c(Cl)cc23)c(C(F)(F)F)nn1Cc1cc(C2CC2)on1` [Example 1551]: the pIC50 is 7.95.

`Cc1nn(Cc2ccc(C(=O)NCC(F)(F)F)cc2)c(C)c1NC(=O)c1cc(C(F)(F)F)nc2ccc(Br)cc12` [Example 1059]: the pIC50 is 7.81.

In the case of `COC(=O)N1CCC(Cn2nc(C)c(NC(=O)c3cc(C(F)(F)F)nc4ccc(Br)cc34)c2C)CC1` [Example 1171], the pIC50 was 6.71.

For the molecule `Cc1c(NC(=O)c2cc(C(F)(F)F)nc3ccc(Br)cc23)c(C#N)nn1Cc1ccc(F)cc1` [Example 1338], the pIC50 is 7.58.

Consider `Cc1nn(CC2CNC(=O)O2)c(C)c1NC(=O)c1cc(C(N)=O)nc2ccccc12` (stereo not drawn) [Example 1347], for which the pIC50 is 5.40.

Consider `Cc1nn(Cc2ccccc2C#N)c(C)c1NC(=O)c1cc(C(N)=O)nc2ccc(F)cc12` [Example 221, N^4-[1-(2-cyanobenzyl)-3,5-dimethyl-1H-pyrazol-4-yl]-6-fluoroquinoline-2,4-dicarboxamide], for which the pIC50 was 8.17.

In the case of `Cc1nn(C(C)c2ccc(F)cc2)c(C)c1NC(=O)c1cc(C(F)(F)F)nc2ccc(Br)cc12` (racemic) [Example 1374], the pIC50 is 7.37.

On to `Cc1nn(Cc2cc(C(C)C)no2)c(C)c1NC(=O)c1cc(C(N)=O)nc2cc(F)ccc12` [Example 1563], for which the pIC50 was 7.45.

Consider `Cc1nn(Cc2ccc(C(=O)N3CC4(CCS4(=O)=O)C3)cc2)c(C)c1NC(=O)c1cc(C(F)(F)F)nc2ccc(Br)cc12` [Example 1087], for which the pIC50 is 7.49.

`Cc1nn(Cc2ccc(F)cc2)c(C)c1NC(=O)c1cc(C(F)(F)F)nc2c(Br)cccc12` [Example 18, 8-bromo-N-[1-(4-fluorobenzyl)-3,5-dimethyl-1H-pyrazol-4-yl]-2-(trifluoromethyl)quinoline-4-carboxamide]: the pIC50 is 7.91.

On to `Cc1nn(Cc2cccc(S(C)(=O)=O)c2)c(C)c1NC(=O)c1cc(C(N)=O)nc2ccccc12` [Example 1642], for which the pIC50 was 6.54.

As for `Cc1nn(Cc2ccc(F)c(F)c2)c(C)c1NC(=O)c1cc(C2CC2)nc2ccc(Br)cc12` [Example 123, 6-bromo-2-cyclopropyl-N-[1-(3,4-difluorobenzyl)-3,5-dimethyl-1H-pyrazol-4-yl]quinoline-4-carboxamide], the pIC50 was 8.70.

With `Cc1nn(Cc2ccc(C(=O)NCC3CCO3)cn2)c(C)c1NC(=O)c1cc(C(F)(F)F)nc2ccc(Br)cc12` (racemic) [Example 1124], the pIC50 was 7.14.

Regarding `Cc1nn(Cc2ccc(C#N)cc2)c(C)c1NC(=O)c1cc(C(N)=O)nc2ccccc12` [Example 259, N^4-[1-(4-cyanobenzyl)-3,5-dimethyl-1H-pyrazol-4-yl]quinoline-2,4-dicarboxamide], the pIC50 was 8.01.

Take `Cc1nn(Cc2ccc(CC(=O)O)cc2)c(C)c1NC(=O)c1cc(C(F)(F)F)nc2ccc(Br)cc12` [Example 151, (4-{[4-({[6-bromo-2-(trifluoromethyl)quinolin-4-yl]carbonyl}amino)-3,5-dimethyl-1H-pyrazol-1-yl]methyl}phenyl)acetic acid]: the pIC50 was 5.89.

As for `Cc1nn(CCN2CCN(C)CC2)c(C)c1NC(=O)c1cc(C(F)(F)F)nc2ccc(Br)cc12` [Example 1279], the pIC50 is 5.41.

Regarding `Cc1nn(Cc2ccc(C(F)(F)F)cc2)c(C)c1NC(=O)c1cc(C(N)=O)nc2cccc(F)c12` [Example 1600], the pIC50 is 8.46.

Regarding `Cc1nn(Cc2ccc(F)cc2F)c(C)c1NC(=O)c1cc(C(N)=O)nc2ccc(Br)cc12` [Example 1490], the pIC50 is 8.43.

`Cc1c(NC(=O)c2cc(C(N)=O)nc3cc(F)ccc23)c(C(F)(F)F)nn1C(C)c1ccccc1` (racemic) [Example 334, (±)-7-fluoro-N^4-[5-methyl-1-(1-phenylethyl)-3-(trifluoromethyl)-1H-pyrazol-4-yl]quinoline-2,4-dicarboxamide]: the pIC50 is 8.12.

Turning to `Cc1nn(Cc2ccc(C(=O)N3CC(C#N)C3)cc2)c(C)c1NC(=O)c1cc(C(F)(F)F)nc2ccc(Br)cc12` [Example 1147], the pIC50 is 6.93.

`Cc1nn(Cc2ccc(S(C)(=O)=O)cc2)c(C)c1NC(=O)c1cc(C(N)=O)nc2ccc(Br)cc12` [Example 1486]: the pIC50 was 8.02.

Take `Cc1cc(Cn2nc(C(F)(F)F)c(NC(=O)c3cc(C(N)=O)nc4ccccc34)c2C)no1` [Example 1538]: the pIC50 is 7.14.

With `CCc1cc(Cn2nc(C)c(NC(=O)c3cc(C(N)=O)nc4cc(F)c(Cl)cc34)c2C)on1` [Example 414, 6-chloro-N^4-{1-[(3-ethyl-1,2-oxazol-5-yl)methyl]-3,5-dimethyl-1H-pyrazol-4-yl}-7-fluoroquinoline-2,4-dicarboxamide], the pIC50 was 8.89.

Regarding `COc1ccc(Cn2nc(C(F)(F)F)c(NC(=O)c3cc(C(N)=O)nc4ccccc34)c2C)cc1` [Example 277, N^4-[1-(4-methoxybenzyl)-5-methyl-3-(trifluoromethyl)-1H-pyrazol-4-yl]quinoline-2,4-dicarboxamide], the pIC50 was 8.74.

Take `COc1ccc(Cn2nc(C)c(NC(=O)c3cc(C(N)=O)nc4cc(F)c(Cl)cc34)c2C)cc1` [Example 214, 6-chloro-7-fluoro-N^4-[1-(4-methoxybenzyl)-3,5-dimethyl-1H-pyrazol-4-yl]quinoline-2,4-dicarboxamide]: the negative-log IC50 (pIC50) was 8.96.

In the case of `Cc1nn(Cc2ccc(C#N)cc2)c(C)c1NC(=O)c1cc(S(=O)(=O)N(C)C)nc2ccccc12` [Example 1577], the pIC50 was 8.01.

Consider `Cc1nn(Cc2ccc(S(C)(=N)=O)cc2)c(C)c1NC(=O)c1cc(C(F)(F)F)nc2ccc(Br)cc12` (racemic) [Example 1427], for which the pIC50 was 7.57.

`Cc1nn(Cc2ccc(C(=O)NCC3CC3)cn2)c(C)c1NC(=O)c1cc(C(F)(F)F)nc2ccc(Br)cc12` [Example 1073]: the pIC50 is 7.66.

For `COc1ccccc1Cn1nc(C(F)(F)F)c(NC(=O)c2cc(C(N)=O)nc3cc(F)c(Cl)cc23)c1C` [Example 1491], the pIC50 was 7.38.

As for `Cc1c(NC(=O)c2cc(C(N)=O)nc3cccc(F)c23)c(C(F)(F)F)nn1Cc1ccccc1C#N` [Example 273, N^4-[1-(2-cyanobenzyl)-5-methyl-3-(trifluoromethyl)-1H-pyrazol-4-yl]-5-fluoroquinoline-2,4-dicarboxamide], the pIC50 is 8.23.

Regarding `Cc1c(NC(=O)c2cc(C(N)=O)nc3cc(F)c(Cl)cc23)c(C(F)(F)F)nn1Cc1ncco1` [Example 1547], the pIC50 was 7.62.

For the molecule `Cc1nn(Cc2ccccc2)c(C)c1NC(=O)c1cc(C(F)(F)F)nc2ccc(Br)cc12` [Example 33, N-(1-benzyl-3,5-dimethyl-1H-pyrazol-4-yl)-6-bromo-2-(trifluoromethyl)quinoline-4-carboxamide], the pIC50 was 7.60.

As to `Cc1c(NC(=O)c2cc(C(F)(F)F)nc3ccc(Br)cc23)c(C(=O)NCCO)nn1Cc1ccc(F)cc1` [Example 1235], the pIC50 is 5.89.

`Cc1nn(Cc2ccc(C(=O)N(C)CCC#N)cc2)c(C)c1NC(=O)c1cc(C(F)(F)F)nc2ccc(Br)cc12` [Example 1160]: the pIC50 was 6.79.

As for `CC(=O)c1cccc(Cn2nc(C)c(NC(=O)c3cc(C(N)=O)nc4cc(F)ccc34)c2C)c1` [Example 1625], the pIC50 is 7.39.

Turning to `Cc1c(NC(=O)c2cc(C(N)=O)nc3ccccc23)c(C(F)(F)F)nn1Cc1cc(C(C)C)no1` [Example 1552], the pIC50 is 6.71.

In the case of `Cc1c(NC(=O)c2cc(C(N)=O)nc3cc(F)ccc23)c(C(F)(F)F)nn1Cc1ccc(C2CCC2)cc1` [Example 1616], the pIC50 is 7.17.

`Cc1nn(Cc2ccc(F)cc2)c(C)c1NC(=O)c1c2c(nc3ccc(Br)cc13)CCCC2` [Example 37, 7-bromo-N-[1-(4-fluorobenzyl)-3,5-dimethyl-1H-pyrazol-4-yl]-1,2,3,4-tetrahydroacridine-9-carboxamide]: the pIC50 is 7.57.

With `COc1cc(C(=O)Nc2c(C)nn(Cc3ccc(C#N)cc3)c2C)c2cc(F)ccc2n1` [Example 265, N-[1-(4-cyanobenzyl)-3,5-dimethyl-1H-pyrazol-4-yl]-6-fluoro-2-methoxyquinoline-4-carboxamide], the pIC50 is 8.18.

As for `Cc1cc(Cn2nc(C)c(NC(=O)c3cc(C(N)=O)nc4ccccc34)c2C)on1` [Example 1560], the pIC50 was 7.40.

For the origin of these results see patent US20170037028A1 (BAYER PHARMA AKTIENGESELLSCHAFT, priority 2013, published 2017).
